Test results reported in patent US10703755B2, “Substituted purine derivative” (SUMITOMO DAINIPPON PHARMA CO., LTD., priority 2016, dated 2020).

Target: human TLR7 (Homo sapiens (Human), UniProt Q9NYK1)
Test: Test for evaluating the inhibition of the activation of human TLR7 (SEAP reporter, TLR7/NF-κB/SEAPorter HEK293 cell)
Type: cell-based
Details: R-848 200 nmol/L; for IC50: SEAP reporter; for inhibitory effect against TLR7 in the test for evaluating inhibition of the activation of TLR7: SEAP activity, result in words
Description: As human TLR7 expressing cell line, HEK293 cell line was bought from IMGENEX Corporation (TLR7/NF-ηB/SEAPorter™ HEK293 cell), which is human embryonic kidney cell line and stably expresses full-length human TLR7 gene and secreted alkaline phosphatase (SEAP) reporter gene under the transcriptional control of an NE-ηB response element. The TLR7/NF-ηB/SEAPorter™ HEK293 cell was cultivated with DMEM containing 10% fetal bovine serum (FBS) and 10 μg/mL blasticidin S at 37° C. in the presence of 5% CO2. The TLR7/NF-ηB/SEAPorter™ HEK293 cell was seeded into 96-well microtiter plate at 5×10^4 cell/90 μL/well, and the place was cultivated at 37° C. in a CO2 incubator overnight.
Each compound prepared in the Examples was evaluated by Test 1.

Chain of human TLR7 (Q9NYK1 27-1049): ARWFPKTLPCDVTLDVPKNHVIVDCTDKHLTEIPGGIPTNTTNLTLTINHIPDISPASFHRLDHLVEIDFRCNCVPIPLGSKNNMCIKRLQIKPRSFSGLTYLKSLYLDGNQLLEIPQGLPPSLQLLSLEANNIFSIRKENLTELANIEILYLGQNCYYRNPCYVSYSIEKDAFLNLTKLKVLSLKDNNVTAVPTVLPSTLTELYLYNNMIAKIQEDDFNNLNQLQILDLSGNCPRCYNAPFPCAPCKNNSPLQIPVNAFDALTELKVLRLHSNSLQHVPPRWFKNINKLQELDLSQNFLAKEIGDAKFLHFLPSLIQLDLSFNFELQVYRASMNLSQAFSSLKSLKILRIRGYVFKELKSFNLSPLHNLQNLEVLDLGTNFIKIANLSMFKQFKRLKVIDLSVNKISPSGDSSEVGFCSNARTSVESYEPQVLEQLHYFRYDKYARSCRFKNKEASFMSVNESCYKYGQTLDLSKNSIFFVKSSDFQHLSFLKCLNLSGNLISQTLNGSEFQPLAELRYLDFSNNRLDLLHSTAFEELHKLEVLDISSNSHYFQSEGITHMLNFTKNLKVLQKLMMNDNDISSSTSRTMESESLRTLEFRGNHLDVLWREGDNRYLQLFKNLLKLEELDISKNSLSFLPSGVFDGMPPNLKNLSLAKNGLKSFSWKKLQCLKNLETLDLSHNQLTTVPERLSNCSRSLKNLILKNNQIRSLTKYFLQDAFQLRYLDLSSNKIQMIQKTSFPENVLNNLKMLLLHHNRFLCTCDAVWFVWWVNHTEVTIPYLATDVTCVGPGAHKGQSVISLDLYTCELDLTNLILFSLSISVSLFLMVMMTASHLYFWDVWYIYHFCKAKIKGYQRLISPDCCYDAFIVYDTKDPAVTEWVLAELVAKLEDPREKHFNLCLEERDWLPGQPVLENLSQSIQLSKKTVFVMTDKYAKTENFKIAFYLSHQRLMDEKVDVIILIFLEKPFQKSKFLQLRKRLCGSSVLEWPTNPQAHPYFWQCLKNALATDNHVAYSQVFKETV

| Structure (SMILES) | IC50 [nM] | inhibitory effect against TLR7 in the test for evaluating inhibition of the activation of TLR7 |
| --- | --- | --- |
| CCOc1nc(C)c2nc(-c3cncc(F)c3)n(Cc3ccc(C4=CN5CCC4CC5)nc3C(F)(F)F)c2n1 [Example 360] | 1720 |  |
| COc1nc(C)c2nc(-c3cncc(F)c3)n(Cc3ccc(CN(C)C)cc3F)c2n1 [Example 259, 1-(3-fluoro-4-{[8-(5-fluoropyridin-3-yl)-2-methoxy-6-methyl-9H-purin-9-yl]methyl}phenyl)-N,N-dimethylmethanamine] | 28 | potent inhibitory effect against TLR7 |
| CCOc1nc(C)c2nc(-c3cncc(F)c3)n(Cc3ccc(C4=CN5CCC4CC5)cc3OCC)c2n1 [Example 356] | 463 |  |
| CCCCCc1nc(N)c2nc(-c3cncc(OC)c3)n(Cc3ccccc3)c2n1 [Example 27] | 1400 |  |
| CCOc1nc(N)c2nc(-c3cncc(OC)c3)n(Cc3ccc(CN(C)C)cc3)c2n1 [Example 36] | 2900 |  |
| CCOc1nc(C)c2nc(-c3cncc(F)c3)n(Cc3cnn(CC4CCN(C)C4)c3)c2n1 (stereo not drawn) [Example 278] | 72 | potent inhibitory effect against TLR7 |
| CCOc1nc(C)c2nc(-c3cncc(F)c3)n(Cc3cnn(CC4CCNCC4)c3)c2n1 [Example 428] | 210 |  |
| CCOc1nc(C)c2nc(-c3cncc(F)c3)n(Cc3cnn(CCN4CCN(C)CC4)c3)c2n1 [Example 300] | 28 | potent inhibitory effect against TLR7 |
| CCN1CCC(c2ccc(Cn3c(-c4cncc(F)c4)nc4c(C)nc(OC)nc43)c(F)c2)C1 (stereo not drawn) [Example 291, 9-[4-(1-ethylpyrrolidin-3-yl)-2-fluorobenzyl]-8-(5-fluoropyridin-3-yl)-2-methoxy-6-methyl-9H-purine] | 17 | potent inhibitory effect against TLR7 |
| COc1nc(C)c2nc(-c3cncc(F)c3)n(Cc3ccc(CO)cc3F)c2n1 [Example 258] | 169 |  |
| COc1nc(C)c2nc(-c3cncc(F)c3)n(Cc3ccc(C4CN5CCC4CC5)cc3F)c2n1 (single isomer, unassigned) [Example 393, 9-[4-(1-azabicyclo[2.2.2]oct-3-yl)-2-fluorobenzyl]-8-(5-fluoropyridin-3-yl)-2-methoxy-6-methyl-9H-purine] | 1 |  |
| CCN1C2CCC1CC(Oc1ccc(Cn3c(-c4cncc(C#N)c4)nc4c(C)nc(OC)nc43)c(F)c1)C2 (stereo not drawn) [Example 296, 5-[9-(4-{[(3-endo)-8-ethyl-8-azabicyclo[3.2.1]oct-3-yl]oxy}-2-fluorobenzyl)-2-methoxy-6-methyl-9H-purin-8-yl]pyridine-3-carbonitrile] | 21 | potent inhibitory effect against TLR7 |
| CCOc1nc(C)c2nc(-c3cncc(F)c3)n(Cc3cnn(C4CCN(C)CC4)c3)c2n1 [Example 166] | 50 | potent inhibitory effect against TLR7 |
| COc1nc(C)c2nc(-c3cncc(F)c3)n(Cc3ccc(C4CCNCC4)cc3F)c2n1 [Example 431] | 8 | potent inhibitory effect against TLR7 |
| CCOc1nc(C)c2nc(-c3cncc(F)c3)n(Cc3ccc(C4CN5CCC4CC5)nc3C#N)c2n1 (stereo not drawn) [Example 382] | 575 |  |
| COc1nc(C)c2nc(-c3cncc(C#N)c3)n(Cc3ccc(O[C@H]4C[C@H]5CC[C@@H](C4)N5)cc3F)c2n1 [Example 436] | 37 | potent inhibitory effect against TLR7 |
| CCOc1nc(C)c2nc(-c3cncc(F)c3)n(Cc3ccc(CN4CC(C#N)C4)cc3)c2n1 [Example 116] | 160 |  |

| Structure (SMILES) | IC50 [nM] | inhibitory effect against TLR7 in the test for evaluating inhibition of the activation of TLR7 |
| --- | --- | --- |
| COc1nc(C)c2nc(-c3cccnc3)n(Cc3ccc(O[C@H]4C[C@H]5CC[C@@H](C4)N5)cc3F)c2n1 [Example 437] | 16 | potent inhibitory effect against TLR7 |
| CCOc1nc(N)c2nc(-c3cncc(F)c3)n(Cc3ccc(CN4CCCC4)cc3)c2n1 [Example 104] | 760 |  |
| COc1nc(C)c2nc(-c3cncc(F)c3)n(Cc3ccc(OC4CCN(C)CC4)cc3F)c2n1 [Example 411, 9-{2-fluoro-4-[(1-methylpiperidin-4-yl)oxy]benzyl}-8-(5-fluoropyridin-3-yl)-2-methoxy-6-methyl-9H-purine] | 26 | potent inhibitory effect against TLR7 |
| COc1nc(C)c2nc(-c3cncc(C#N)c3)n(Cc3ccc(OC4CC5CCC(C4)N5C)cc3F)c2n1 (stereo not drawn) [Example 295, 5-[9-(2-fluoro-4-{[(3-endo)-8-methyl-8-azabicyclo[3.2.1]oct-3-yl]oxy}benzyl)-2-methoxy-6-methyl-9H-purin-8-yl]pyridine-3-carbonitrile] | 13 | potent inhibitory effect against TLR7 |
| CCOc1nc(C)c2nc(-c3cncc(F)c3)n(Cc3ccc(CN4C[C@@H]5C[C@H]4CN5C)cc3)c2n1 [Example 109, 2-ethoxy-8-(5-fluoropyridin-3-yl)-6-methyl-9-(4-{[(1S,4S)-5-methyl-2,5-diazabicyclo[2.2.1]hept-2-yl]methyl}benzyl)-9H-purine] | 10 | potent inhibitory effect against TLR7 |
| CCOc1nc(N)c2nc(-c3cncc(F)c3)n(Cc3ccc4c(c3)CN(C)C4)c2n1 [Example 137] | 840 |  |
| CCN1C[C@@H]2C[C@H]1CN2Cc1ccc(Cn2c(-c3cncc(F)c3)nc3c(N)nc(OC)nc32)cc1 [Example 134] | 170 |  |
| CCOc1nc(N)c2nc(-c3cncc(F)c3)n(Cc3ccc(CN4CCN(C)CC4)cc3)c2n1 [Example 81] | 60 | potent inhibitory effect against TLR7 |
| CCOc1nc(C)c2nc(-c3cncc(F)c3)n(Cc3ccc(CN(CC)CC)cc3)c2n1 [Example 266] | 29 | potent inhibitory effect against TLR7 |
| CN(C)Cc1ccc(Cn2c(-c3cncc(F)c3)nc3c(N)nc(OC4CCOCC4)nc32)cc1 [Example 151] | 16600 |  |
| CCN1CC(COc2ccc(Cn3c(-c4cncc(F)c4)nc4c(C)nc(OC)nc43)c(F)c2)C1 [Example 287] | 29 | potent inhibitory effect against TLR7 |
| CCOc1nc(N)c2nc(-c3cncc(F)c3)n(Cc3ccc(O[C@H]4CCN(C)C4)nc3)c2n1 [Example 39] | 820 |  |
| COc1nc(C)c2nc(-c3cccnn3)n(Cc3ccc(OC4CN5CCC4CC5)cc3F)c2n1 (stereo not drawn) [Example 441] | 176 |  |
| COc1nc(C)c2nc(-c3cncc(F)c3)n(Cc3ccc(O)cc3F)c2n1 [Example 404, 3-Fluoro-4-{[8-(5-fluoropyridin-3-yl)-2-methoxy-6-methyl-9H-purin-9-yl]methyl}phenol] | 846 |  |
| CCCCNc1nc(N)c2nc(-c3cncc(F)c3)n(Cc3ccc(CN(C)C)cc3)c2n1 [Example 154] | 13600 |  |
| CCOc1nc(C)c2nc(-c3cncc(F)c3)n(Cc3ccc(C4CN5CCC4CC5)cn3)c2n1 (stereo not drawn) [Example 370, 9-{[5-(1-Azabicyclo[2.2.2]oct-3-yl)pyridin-2-yl]methyl}-2-ethoxy-8-(5-fluoropyridin-3-yl)-6-methyl-9H-purine] | 117 |  |
